Measurements: patent publication US7893199B2, “Peptides having neutrophil-stimulating activity” (National University Corporation Gunma University, priority 2006, dated 2011)
Read-outs that look alike come from different tables or passages of the source. Where a SMILES comes first, the peptide text is derived from it. Where no end group is shown, it is not given here.

How the values were obtained:
[1] = tested on: HL-60 cells differentiated into the neutrophil-like cells; experiment: β-hexosaminidase-secreting activity of neutrophil-like differentiated HL-60 cells; format: cell-based, human; conditions: for Activity (β-hexosaminidase-secreting activity class): lowest concentration class at which secretion was confirmed
Description: (1) Culture of Cell and Differentiation Into Neutrophil-like Cell
In this time, the cells were subcultured at a cell density of 1.0×10^5 cells/ml to 1.5×10^6 cells/ml, the number of cells was counted using a microscope, and the state of the cells was also confirmed.
The HL-60 cells were differentiated into neutrophil-like cells by setting the cell density in the flask to about 1.0×10^6 cells/ml, adding dibutylyl-cAMP (db-cAMP) as a differentiation-inducing agent so as to have a final concentration of 500 μM, and incubating the cells in the presence of CO2 at 37° C. for 3 days.
(2) Stimulation of Cell and Measurement of β-Hexosaminidase-secreting Activity
The cells were collected by centrifuging the suspension of the differentiated HL-60 cells (1,000 rpm, 5 minutes, 4° C.). After that, the following operation was repeated three times to wash the cells: Hepes buffered Hank's solution (HBHS) containing ice-cooled 0.1% BSA (1.2 mM CaCl2.2H2O, 5.4 mM KCl, 0.44 mM KH2PO4, 0.49 mM MgCl2.6H2O, 0.41 mM MgSO4.7H2O, 136.9 mM NaCl, 0.34 mM Na2HPO4, 10 mM Hepes, 4.2 mM NaHCO3, 5.5 mM D-glucose, pH 7.4) was added to the cells; the mixture was suspended by inversion; and the mixture was centrifuged again (1,000 rpm, 5 minutes, 4° C.). Subsequently, HBHS was added so that the mixture has a cell density of 5.6×10^6 cells/ml and suspended. Then, DNase I and cytochalasin B were each added so as to have a final concentration of 5 μg/ml, and the cell suspension was dispensed in an amount of 90 μl (5×10^5 cells) on ice. […] After the cell stimulation for 10 minutes, 100 μl of an ice-cooled stop solution (25 mM Tris, 123 mM NaCl, 2.7 mM KCl, pH 7.4) were added, and immediately, the mixture was centrifuged (5,000 rpm, 1 minute, 4° C.). 200 μl of the obtained supernatant were transferred to a new tube.
The amount of β-hexosaminidase released in the supernatant of the reaction solution was measured by an enzyme reaction using p-nitrophenyl-N-acetyl-μ-D-glucosaminide as a substrate (Non-patent Document 12). That is, the supernatant of the reaction solution was dispensed in an amount of 90 μl to a 96-well plate. 60 μl of a substrate solution (10 mM p-nitrophenyl-N-acetyl-μ-D-glucosaminide, 40 mM citrate, 70 mM Na2HPO4, pH 4.5) were added to each well, followed by incubation at 37° C. for 1 hour. After the reaction, 100 μl of a stop solution (0.4 M glycine, pH 10.7) were added to each well and a color of the released p-nitrophenol was developed. The color development was measured with a plate reader at adsorption at 405 nm (reference: 492 nm). The all amount of β-hexosaminidase contained in the cells was quantified by treating the cells with Triton X-100 having a final concentration of 0.05%. In addition, the amount of β-hexosaminidase secreted by stimulation of 10 μM fMLP was also measured, and the ratio of the secretion amount by stimulation with each peptide to the above sectretion amount by stimulation with fMLP.

[2] = tested on: differentiated HL-60 cells; experiment: migration activity (Chemotaxis Index) of differentiated HL-60 cells; format: cell-based, human
Description: (3) Measurement of Migration Activity
The cells were collected by centrifuging the suspension of the differentiated HL-60 cells (1,000 rpm, 5 minutes, 4° C.). After that, the following operation was repeated three times to wash the cells: 10% FBS-RPMI1640 was added to the cells; the mixture was suspended by inversion; and the mixture was centrifuged again (1,000 rpm, 5 minutes, 4° C.). Then, a medium (10% FBS-RPMI1640) was added so that a cell density was 4×10^6 cells/ml, thereby a cell suspension was prepared. Subsequently, 1 ml of each peptide solution (dissolved in 10% FBS-RPMI 1640) was transferred to each well of a 24-well plate, and the plate was incubated at 37° C. for 20 minutes. After that, 500 μl of the cell suspension (2×10^6 cells) were put in Chemotaxicell (KURABO […] LTD., 3 μm) and the Chemotaxicell was set in a plate, followed by incubation in the presence of 5% CO2 at 37° C. for 1 hour. Then, the Chemotaxicell was removed and the solution in each well of the plate was pipetted. The cells migrated to the plate side was suspended well and the number of the cells were measured. Note that the migration activity by the peptide was represented by a ratio of the number of the cells to the number of the cells passing the Chemotaxicell at the time of non-stimulation (Chemotaxis Index, CI).

[3] = differentiated HL-60 cells, read-out: EC50, β-hexosaminidase-secreting activity
[4] = neutrophil-like differentiated HL-60 cells, Table 1, read-out: EC50 (μM), β-hexosaminidase-secreting activity
[5] = neutrophil-like differentiated HL-60 cells

Row | Molecule | EC50 [1, 3] [µM] | EC50 [1, 4] [µM] | concentration of migration activity compared with that of β-hexosaminidase-secreting activity [2] | desensitization of migration activity with increasing concentration of the peptide [2] | β-hexosaminidase-secreting activity of C-terminally extended peptide compared to the peptide before the extension ([1]; differentiated HL-60 cells) | Activity (β-hexosaminidase-secreting activity class) [1, 5]
1 | MFRRPVLQVLRQFVRH [No. 037] | 0.11 |  | confirmed at the almost same concentration | subjected to desensitization completely |  | 
2 | CC[C@H](C)[C@H](NC(=O)[C@H](CS)NC(=O)[C@H](CC(C)C)NC(=O)[C@H](CCC(N)=O)NC(=O)[C@@H]1CCCN1C(=O)[C@H](CO)NC(=O)[C@H](Cc1ccccc1)NC(=O)[C@H](Cc1c[nH]cn1)NC(=O)[C@H](C)NC(=O)[C@H](CCCNC(=N)N)NC(=O)[C@H](CC(C)C)NC(=O)[C@H](CS)NC(=O)[C@H](Cc1c[nH]cn1)NC(=O)[C@H](CCCNC(=N)N)NC(=O)CNC(=O)[C@@H](NC(=O)[C@H](Cc1c[nH]cn1)NC(=O)[C@H](CCCNC(=N)N)NC(=O)[C@H](CC(C)C)NC(=O)[C@H](CC(C)C)NC(=O)[C@H](CC(C)C)NC(=O)[C@H](C)NC(=O)[C@H](C)NC(=O)[C@@H](N)CCSC)C(C)C)C(=O)N[C@@H](CCCNC(=N)N)C(=O)N[C@@H](CC(N)=O)C(=O)N[C@@H](C)C(=O)N[C@H](C(=O)N1CCC[C@H]1C(=O)N[C@@H](CC(C)C)C(=O)O)C(C)C [No. 023] (H-MAALLLRHVGRHCLRAHFSPQLCIRNAVPL-OH; N-terminus and C-terminus assumed) | 0.3 |  | confirmed at the almost same concentration | subjected to desensitization completely |  | 
3 | MFPLARNALSSLKIQSILQSMARH [No. 048] | 0.1 |  | confirmed at the almost same concentration |  |  | 
4 | MFPLVKSALNRLQVRSIQQTMARQSHQKRT [No. 031] | 0.2 |  | confirmed at the almost same concentration |  | higher activity compared to the peptides before the extension | 
5 | 008 (MLGQSIRRFTTSVVR) [compound 008] |  | > 100 |  |  |  | ▴ (a peptide in which the β-hexosaminidase-secreting activity was confirmed at a concentration of 100 μM or less)
6 | MAVVGVSSVSRLLGRSRPQLGRPM [compound 009] |  | 5 |  |  |  | ∘ (a peptide in which the β-hexosaminidase-secreting activity was confirmed at a concentration of 1 μM or less)
7 | MLWNLLALHQIGQRTISTASHRHFKNKVPEKQK [No. 032] | 0.15 |  | confirmed at the concentration lower than the concentration at which β-hexosaminidase-secreting activity was confirmed |  | higher activity compared to the peptides before the extension | 
8 | 003 (MASRLLRGAGTLAAQALRAR) [compound 003] |  |  |  |  |  | ▴ (a peptide in which the β-hexosaminidase-secreting activity was confirmed at a concentration of 100 μM or less)
9 | MSVLTPLLLRGLTGSARRLPVPRAK [No. 007] | 8 |  |  |  |  | 
10 | MQALRVSQALIRSFSSTARNR [compound 011] |  | 1.7 |  |  |  | ⊚ (a peptide in which the β-hexosaminidase-secreting activity was confirmed at a concentration of 300 nM or less)

Second part, led by results:

Row | EC50 [1, 3] [µM] | EC50 [1, 4] [µM] | Molecule | concentration of migration activity compared with that of β-hexosaminidase-secreting activity [2] | desensitization of migration activity with increasing concentration of the peptide [2] | β-hexosaminidase-secreting activity of C-terminally extended peptide compared to the peptide before the extension ([1]; differentiated HL-60 cells) | Activity (β-hexosaminidase-secreting activity class) [1, 5]
11 |  | > 20 | 047 (MLSALARPVSAALRRSFSTSAQNN) [compound 047] |  |  |  | ● (a peptide in which the β-hexosaminidase-secreting activity was confirmed at a concentration of 10 μM or less)
12 |  | > 50 | 029 (MAAPRAGRGAGWSLRAWRALGGIRWGRRPRL) [compound 029] |  |  |  | ● (a peptide in which the β-hexosaminidase-secreting activity was confirmed at a concentration of 10 μM or less)
13 |  | 0.23 | MLWNLLALHQIGQRTISTASHRH [compound 019] |  |  |  | ⊚ (a peptide in which the β-hexosaminidase-secreting activity was confirmed at a concentration of 300 nM or less)
14 |  | 7 | MALLTAAARLLGTKNASCLVLAARHAS [compound 050] |  |  |  | ● (a peptide in which the β-hexosaminidase-secreting activity was confirmed at a concentration of 10 μM or less)
15 |  | 2 | MKLLTRAGSFSRFY [compound 040] |  |  |  | ⊚ (a peptide in which the β-hexosaminidase-secreting activity was confirmed at a concentration of 300 nM or less)
16 |  | 0.3 | CC[C@H](C)[C@H](NC(=O)[C@H](CS)NC(=O)[C@H](CC(C)C)NC(=O)[C@H](CCC(N)=O)NC(=O)[C@@H]1CCCN1C(=O)[C@H](CO)NC(=O)[C@H](Cc1ccccc1)NC(=O)[C@H](Cc1c[nH]cn1)NC(=O)[C@H](C)NC(=O)[C@H](CCCNC(=N)N)NC(=O)[C@H](CC(C)C)NC(=O)[C@H](CS)NC(=O)[C@H](Cc1c[nH]cn1)NC(=O)[C@H](CCCNC(=N)N)NC(=O)CNC(=O)[C@@H](NC(=O)[C@H](Cc1c[nH]cn1)NC(=O)[C@H](CCCNC(=N)N)NC(=O)[C@H](CC(C)C)NC(=O)[C@H](CC(C)C)NC(=O)[C@H](CC(C)C)NC(=O)[C@H](C)NC(=O)[C@H](C)NC(=O)[C@@H](N)CCSC)C(C)C)C(=O)N[C@@H](CCCNC(=N)N)C(=O)N[C@@H](CC(N)=O)C(=O)N[C@@H](C)C(=O)N[C@H](C(=O)N1CCC[C@H]1C(=O)N[C@@H](CC(C)C)C(=O)O)C(C)C [compound 023] (H-MAALLLRHVGRHCLRAHFSPQLCIRNAVPL-OH; N-terminus and C-terminus assumed) |  |  |  | ⊚ (a peptide in which the β-hexosaminidase-secreting activity was confirmed at a concentration of 300 nM or less)
17 |  | > 30 | 045 (MAAALLARASGPARRALCPRAWRQ) [compound 045] |  |  |  | ● (a peptide in which the β-hexosaminidase-secreting activity was confirmed at a concentration of 10 μM or less)
